We go through 27 molecules from patent US11524966B1 (Valo Early Discovery, Inc., priority 2017, dated 2022).

Molecules are shown by their SMILES. Where only a bound is given, the exact number is not on record here.

This assay concerns the target T1, USP25 (USP25-His6, Boston Biochem E-546) (Homo sapiens, UniProt Q9UHP3).
T1 construct: His6; purchased Boston Biochem E-546
T1 sequence (Q9UHP3 1-1055): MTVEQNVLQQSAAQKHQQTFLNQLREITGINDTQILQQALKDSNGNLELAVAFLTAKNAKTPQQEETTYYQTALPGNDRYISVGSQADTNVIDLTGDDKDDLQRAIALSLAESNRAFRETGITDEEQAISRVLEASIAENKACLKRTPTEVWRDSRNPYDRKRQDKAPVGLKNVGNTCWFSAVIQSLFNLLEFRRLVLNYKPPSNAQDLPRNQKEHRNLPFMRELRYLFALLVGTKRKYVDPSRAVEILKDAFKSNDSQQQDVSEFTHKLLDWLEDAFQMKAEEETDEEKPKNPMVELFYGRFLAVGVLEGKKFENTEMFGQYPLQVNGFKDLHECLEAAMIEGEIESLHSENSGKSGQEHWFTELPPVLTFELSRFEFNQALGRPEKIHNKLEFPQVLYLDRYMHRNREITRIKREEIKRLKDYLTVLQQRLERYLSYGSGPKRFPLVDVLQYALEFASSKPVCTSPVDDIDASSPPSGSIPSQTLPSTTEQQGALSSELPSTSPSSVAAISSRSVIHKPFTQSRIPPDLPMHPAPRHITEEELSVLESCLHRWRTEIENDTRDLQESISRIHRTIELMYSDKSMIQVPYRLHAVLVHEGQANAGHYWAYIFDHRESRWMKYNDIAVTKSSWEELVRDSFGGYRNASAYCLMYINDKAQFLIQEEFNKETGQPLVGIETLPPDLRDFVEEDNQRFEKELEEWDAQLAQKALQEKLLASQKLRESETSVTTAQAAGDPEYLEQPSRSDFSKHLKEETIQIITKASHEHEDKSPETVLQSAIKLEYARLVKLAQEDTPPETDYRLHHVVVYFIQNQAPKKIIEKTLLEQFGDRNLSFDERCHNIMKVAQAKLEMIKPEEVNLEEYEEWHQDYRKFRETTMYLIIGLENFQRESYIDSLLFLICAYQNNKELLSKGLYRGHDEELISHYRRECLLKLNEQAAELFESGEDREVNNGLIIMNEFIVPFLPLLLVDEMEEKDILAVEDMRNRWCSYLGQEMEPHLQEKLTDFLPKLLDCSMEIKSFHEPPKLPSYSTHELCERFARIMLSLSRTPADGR
As to the kind of experiment: Ubiquitin-Rhodamine 110 Assay for USP25 Activity, Example A-2. In kind it is biochemical. To be noted: Ubiquitin-Rhodamine 110 assay, Example A-2; read-out: USP25 A-2 IC50 range. The gist of the method: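 Inhibition is quantified as IC50 by 4-parameter fit of fluorescence (485/535 nm) from Ub-Rh110 hydrolysis. Enzyme USP25-His6 at 75 pM with 30 min compound preincubation, then 25 nM substrate for 45 min at room temperature in pH 8.0 Tris buffer containing BME.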
In the case of `Cc1ccc2c(N)c(C(=O)N[C@@H]3CCc4cc(N5CC6CNCC(C5)O6)ccc4C3)sc2n1` [Example 451, N-((2R)-6-(9-oxa-3,7-diazabicyclo[3.3.1]nonan-3-yl)-1,2,3,4-tetrahydronaphthalen-2-yl)-3-amino-6-methylthieno[2,3-b]pyridine-2-carboxamide], the concentration for half-maximal inhibition (IC50) was 200 to 2000 nM.

As to `Cc1cccc2c(C(=O)N[C@H]3COc4cc(N5CCNCC5)ccc4C3)cnn12` [Example 458, (R)-7-methyl-N-(7-(piperazin-1-yl)chroman-3-yl)pyrazolo[1,5-a]pyridine-3-carboxamide], the IC50 lay within 200 to 2000 nM.

Take `Cc1ccc2c(N)c(C(=O)N[C@H]3COc4cc(N5CCS(=O)(=O)CC5)ccc4C3)sc2n1` [Example 5-2, (R)-3-amino-N-(7-(1,1-dioxidothiomorpholino)chroman-3-yl)-6-methylthieno[2,3-b]pyridine-2-carboxamide]: the IC50 is 50 to 200 nM. The figure for `Cc1ccc2c(N)c(C(=O)N[C@H]3CCc4cc(N5CCNCC5)c(F)c(F)c4C3)sc2n1` [Example 417, 3-amino-N-[(2S)-7,8-difluoro-6-(piperazin-1-yl)-1,2,3,4-tetrahydronaphthalen-2-yl]-6-methylthieno[2,3-b]pyridine-2-carboxamide] is > 2000 nM. The same measure for `Cc1ccc2c(N)c(C(=O)N[C@H]3COc4cc(N5CC[C@@]6(CCCNC6)C5)ccc4C3)sc2n1` [Example 3-14, N-((R)-7-((R)-2,7-diazaspiro[4.5]decan-2-yl)chroman-3-yl)-3-amino-6-methylthieno[2,3-b]pyridine-2-carboxamide]: 50 to 200 nM. The figure for `O=C(N[C@H]1COc2cc(N3CCNCC3)ccc2C1)c1cnn2cc(Cl)ccc12` [Example 462, (R)-6-chloro-N-(7-(piperazin-1-yl)chroman-3-yl)pyrazolo[1,5-a]pyridine-3-carboxamide] is > 2000 nM. As for `Cc1ccc2c(N)c(C(=O)N[C@H]3COc4cc(N5CC(O)(C(F)(F)F)C5)ccc4C3)sc2n1` [Example 5-3, (R)-3-amino-N-(7-(3-hydroxy-3-(trifluoromethyl)azetidin-1-yl)chroman-3-yl)-6-methylthieno[2,3-b]pyridine-2-carboxamide], the IC50 lay in the range of 200 to 2000 nM. Regarding `Cc1ccc2c(N)c(C(=O)N[C@H]3COc4cc(N5CCC(O)CC5)ccc4C3)sc2n1` [Example 7-1, (R)-3-amino-N-(7-(4-hydroxypiperidin-1-yl)chroman-3-yl)-6-methylthieno[2,3-b]pyridine-2-carboxamide], the IC50 was 200 to 2000 nM.

As for `O=C(N[C@H]1COc2cc(N3CCNCC3)ccc2C1)c1cn2nc(Cl)ccc2n1` [Example 464, (R)-6-chloro-N-(7-(piperazin-1-yl)chroman-3-yl)imidazo[1,2-b]pyridazine-2-carboxamide], the IC50 is > 2000 nM. For the molecule `Cc1ccc2c(N)c(C(=O)N[C@@H]3CCc4cc(N5CCNCC5)c(F)c(F)c4C3)sc2n1` [Example 418, 3-amino-N-[(2R)-7,8-difluoro-6-(piperazin-1-yl)-1,2,3,4-tetrahydronaphthalen-2-yl]-6-methylthieno[2,3-b]pyridine-2-carboxamide], the IC50 is 200 to 2000 nM. The figure for `Cc1ccc2c(N)c(C(=O)N[C@H]3COc4cc(N5C[C@@H](N)CC56COC6)ccc4C3)sc2n1` (single isomer, unassigned) [Example 352] is 50 to 200 nM; for `O=C(N[C@H]1COc2cc(N3CCNCC3)ccc2C1)c1ccc(NCc2cccc(C(F)(F)F)c2)nc1` [Example 469, (R)-N-(7-(piperazin-1-yl)chroman-3-yl)-6-((3-(trifluoromethyl)benzyl)amino)nicotinamide] it is 50 to 200 nM; for `Cc1ccc2c(N)c(C(=O)N[C@H]3COc4c(cc(F)c(N5CCNCC5)c4F)C3)sc2n1` (single isomer, unassigned) [Example 3-17] it is 50 to 200 nM. The figure for `Cc1cc(C)c2c(N)c(C(=O)N[C@H]3CCc4nc(N5CC6CCC(C5)N6)ccc4C3)sc2n1` [Example 354, 3-amino-N-[(6S)-2-{3,8-diazabicyclo[3.2.1]octan-3-yl}-5,6,7,8-tetrahydroquinolin-6-yl]-4,6-dimethylthieno[2,3-b]pyridine-2-carboxamide] is 200 to 2000 nM; for `Cc1ccc2c(N)c(C(=O)N[C@H]3CCc4nc(N5C[C@@H](N)[C@@H](C(F)F)C5)ccc4C3)sc2n1` [Example 346, 3-amino-N-[(6S)-2-[(3S,4S)-3-amino-4-(difluoromethyl)pyrrolidin-1-yl]-5,6,7,8-tetrahydroquinolin-6-yl]-6-methylthieno[2,3-b]pyridine-2-carboxamide] it is 200 to 2000 nM. As to `O=C(N[C@H]1COc2cc(N3CC4CCC(C3)N4)ccc2C1)c1cnc2c(c1)[C@@H]1C[C@@H]1CN2` [Example 3-15, (1aS,7bR)-N-((3R)-7-(3,8-diazabicyclo[3.2.l]octan-3-yl)chroman-3-yl)-1a,2,3,7b-tetrahydro-1H-cyclopropa[c][1,8]naphthyridine-6-carboxamide], the IC50 lay within 50 to 200 nM. The same measure for `Cc1ccc2c(N)c(C(=O)N[C@H]3COc4cc(N5CC[C@H](N)C5)ccc4C3)sc2n1` [Example 369, 3-amino-N-[(3R)-7-[(3S)-3-aminopyrrolidin-1-yl]-3,4-dihydro-2H-1-benzopyran-3-yl]-6-methylthieno[2,3-b]pyridine-2-carboxamide]: 50 to 200 nM; for `Cc1ccc2c(N)c(C(=O)N[C@H]3COc4cc(N5CCC[C@@](C)(O)C5)ccc4C3)sc2n1` [Example 7-3, 3-amino-N-((R)-7-((R)-3-hydroxy-3-methylpiperidin-l-yl)chroman-3-yl)-6-methylthieno[2,3-b]pyridine-2-carboxamide]: 200 to 2000 nM. The same measure for `CC(=O)N1CCCc2cc(C(=O)N[C@H]3COc4cc(N5CCNCC5)ccc4C3)ccc21` [Example 459, (R)-1-acetyl-N-(7-(piperazin-1-yl)chroman-3-yl)-1,2,3,4-tetrahydroquinoline-6-carboxamide]: > 2000 nM. The same measure for `O=C(N[C@H]1COc2cc(N3CC4CCC(C3)N4)ccc2C1)c1cnc2c(c1)[C@H]1C[C@H]1CN2` [Example 3-16, (1aR,7bS)-N-((3R)-7-(3,8-diazabicyclo[3.2.1]octan-3-yl)chroman-3-yl)-1a,2,3,7b-tetrahydro-1H-cyclopropa[c][1,8]naphthyridine-6-carboxamide]: > 2000 nM; for `O=C(N[C@@H]1CCc2c(c(F)cc(N3CC4CCC(C3)N4)c2C(F)F)C1)c1cnc2c(c1)[C@@H]1C[C@@H]1CN2` (single isomer, unassigned) [Example 361]: > 2000 nM.

Turning to `O=C(N[C@H]1COc2cc(N3CCNCC3)ccc2C1)c1ccc(NCc2ccccn2)nc1` [Example 470, (R)-N-(7-(piperazin-1-yl)chroman-3-yl)-6-((pyridin-2-ylmethyl)amino)nicotinamide], the IC50 was > 2000 nM. `O=C(N[C@H]1CCc2c(c(F)cc(N3CC4CCC(C3)N4)c2C(F)F)C1)c1cnc2c(c1)[C@H]1C[C@H]1CN2` (single isomer, unassigned) [Example 360]: the IC50 lay in the range of 200 to 2000 nM. The same measure for `Cc1ccc2c(N)c(C(=O)N[C@H]3CCc4nc(N5C[C@@H](N)[C@@H](OC(C)(F)F)C5)ccc4C3)sc2n1` [Example 358, 3-amino-N-[(6S)-2-[(3R,4S)-3-amino-4-(1,1-difluoroethoxy)pyrrolidin-1-yl]-5,6,7,8-tetrahydroquinolin-6-yl]-6-methylthieno[2,3-b]pyridine-2-carboxamide]: > 2000 nM; for `Cc1cc(C)n2ncc(C(=O)N[C@H]3COc4cc(N5CCNCC5)ccc4C3)c2n1` [Example 463, (R)-5,7-dimethyl-N-(7-(piperazin-1-yl)chroman-3-yl)pyrazolo[1,5-a]pyrimidine-3-carboxamide]: > 2000 nM. The same measure for `O=C(N[C@H]1COc2cc(N3CCNCC3)ccc2C1)c1ccc(NCc2cccnc2)nc1` [Example 468, (R)-N-(7-(piperazin-1-yl)chroman-3-yl)-6-((pyridin-3-ylmethyl)amino)nicotinamide]: > 2000 nM. The figure for `Cc1ccc2c(N)c(C(=O)N[C@H]3COc4cc(N5CC6COCC(C5)C6(F)F)ccc4C3)sc2n1` [Example 5-4, 3-amino-N-((3R)-7-(9,9-difluoro-3-oxa-7-azabicyclo[3.3.1]nonan-7-yl)chroman-3-yl)-6-methylthieno[2,3-b]pyridine-2-carboxamide] is 50 to 200 nM.
